Measurements reported in US8697629B2, “Modulation of intracellular signaling” (Angstrom Pharmaceuticals, Inc., priority 2010, dated 2014).
Entries after “also recorded” stand apart in the source; their conditions may differ.

Key:
CD44 = molecular target: T1, CD44 (Homo sapiens, UniProt P16070); assay: Immunoprecipitation of Å6Cbiotin-crosslinked SKOV3 polypeptides, HRP-SA blotting; type: binding; settings: SKOV3 cells, 100 μM Å6Cbiotin, BS3 crosslinking, DF1485 anti-CD44
T1 construct: endogenous in cells; host or cells: SKOV3 cells
Experimental: In FIGS. 1 and 2 SKOV3 cells were incubated with or without 100 μM Å6Cbiotin (Å6CbioXL and ConXL, respectively) for 30 min at 4° C. The cells were then crosslinked with 5 mM bis(sulfosuccinimidyl) suberate (Sulfo-DSS or BS^3) for 30 min at 4° C. and Triton X-100 lysates generated. The lysates were pre-cleared by incubating with Protein A-agarose for 2 hr at room temperature. Aliquots representing 100 μg of the cleared lysates were then incubated overnight at room temperature with 20 μL of Protein A-agarose plus 2 μg of anti-Tenascin R (TnR; E-18, Santa Cruz Biotech.), anti-Tenascin C (TnC; 300-3, Santa Cruz Biotech.), anti-CD44 (DF1485, Santa Cruz Biotech.), anti-Plexin-A1 (Pl A1; H-60, Santa Cruz Biotech.) or murine IgG1 (Sigma Chem. Co.). After washing 5 times with lysis buffer, the immunoprecipitated polypeptides were eluted from the Protein A-agarose by boiling in SDS-PAGE sample buffer. The eluted material and 2 μg aliquots of the starting material were then subjected to SDS-PAGE, transfer to PVDF membranes and blotting with chemiluminescent horseradish peroxidase (HRP)-conjugated streptavidin (HRP-SA).
In FIG. 3 SKOV3 cells were incubated with or without 100 μM Å6Cbiotin (Å6CbioXL and control, respectively) for 30 minutes at 4° C. The cells were then crosslinked with 5 mM BS3 for 30 min at 4° C. […]

B16 melanoma cells = assay: B16 melanoma lung metastasis model; type: in vivo, C57BL/6J mice; settings: melanoma cells injected in the tail vein
Experimental: The B16 melanoma metastasis is well known in the art. A typical protocol for assessing the inhibitory effect of a compound on metastasis is described below. Such a protocol was followed to assess the effect of Å6 on metastasis.
Briefly, B16 melanoma cells can be cultured in RPMI-1640 with 10% fetal bovine serum at 37° C. in an atmosphere of 95% air and 5% CO2. C57BL/6J mice of six to eight weeks can be purchased from commercial suppliers. For the lung metastasis model, about 1×10^5 melanoma cells suspended in 100 μl saline were injected in the tail vein in the presence or absence of Å6. Administration of the Å6 peptide inhibited the lung metastasis by 50% or more.

ERK 1/2 = ERK 1/2 phosphorylation (T202/Y204) in SKOV3 cells, immunoblot; type: cell-based
Experimental: Cells were detached from their culture vessels by brief trypsinization, suspended in complete media and centrifuged at 250×g for 10 min at room temperature. The cell pellets were suspended in Dulbeco's phosphate buffered saline (DPBS) and re-centrifuged for a total of three washes. The cells were then re-suspended at 3.33E5/ml in 24 ml of either RPMI containing 0.5% BSA (Sigma Chem. Co. #A0336) (RPMI/BSA) or the conditioned media of growing NIH3T3 fibroblasts (10% FBS in DMEM) supplemented with 10 ng/ml vascular endothelial growth factor (VEGF) (CMN). The cells were then treated with or without 100 ug/ml soluble hyaluronic acid (HA; human umbilical, Calbiochem #385902) for 30 min at 37° C. under 5% CO2. Aliquots representing 2E6 cells were then plated into 10 cm culture dishes and A6 added to yield final concentrations of 0, 10, 100 and 1000 nM. The cells were cultured overnight (18 hr) at 37° C. under 5% CO2.
After 18 hr of treatment, the media were aspirated from the 10 cm dishes and saved. The plates were washed 3 times with 4 ml of ice-cold DPBS which were pooled with the reserved non-adherent cells. The non-adherent cells were centrifuged at 250×g for 10 min at 4° C., washed twice with cold DPBS, drained and lysed in 50 ul of cold RIPA buffer (ThermoScientific #89901) containing cocktails of broad spectrum phosphatase inhibitors (Calbiochem #524625; used at 2× final concentration) and protease inhibitors (Sigma #P8340) (RIPA/inh.). The 10 cm dishes were drained of remaining wash and the adherent cells lysed by scraping in 200 μL of cold RIPA/inh. For each test condition, the lysates of the non-adherent and adherent populations were combined, vortexed and then centrifuged at 14,000 rpm at 4° C. for 20 min. Aliquots of the cleared lysates were frozen at −80° C. immediately. A small aliquot was reserved for total protein analysis using a BCA Protein Assay Kit (Calbiochem #71285-3).
Samples representing 20 μg of total protein of each lysate were solubilized in the presence of 50 mM Tris pH 6.8, 10% glycerol, 2% SDS and 100 mM DTT for 5 min at 95° C. and then loaded onto 10-20% acrylamide gels (BioRad #345-0044, Tris-HCl, 1 mm, 26 well, 15 μL/well). Electrophoresis was performed using Laemli electrophoresis buffer (0.1% SDS, 25 mM Tris, 192 mM glycine) at 200 V, constant voltage, for one hour. Upon completion of electrophoresis, the proteins were transferred to Immun-Blot PVDF membranes (BioRad #162-0238) in ice-cold 20% methanol in 25 mM Tris, 192 mM glycine for 2 hr at 0.5 Amps, constant current/blotting apparatus. The membranes were then cut vertically between molecular weight markers and in half at the 64 kDa marker to generate pieces for screening of higher molecular weight proteins (e.g., FAK) and lower molecular weight proteins (e.g., MEK and GAPDH). The blots were then blocked for a minimum of 4 hrs at room temperature in 3% bovine serum albumin (Sigma A0336) in 50 mM Tris, pH 7.4, 145 mM NaCl, 0.05% Tween-20 (TTBS) containing 0.05% sodium azide.
Upon completion of the primary antibody incubation, the blots were washed three times for 10 min in TTBS and then incubated with 1/25,000 dilutions of peroxidase-conjugated donkey anti-mouse IgG (Jackson ImmunoResearch #715-035-150) or peroxidase-conjugated donkey anti-rabbit IgG (Jackson ImmunoResearch #711-035-152) in TTBS containing 3% BSA for one hour at room temperature. […]

T1 sequence (P16070 21-742): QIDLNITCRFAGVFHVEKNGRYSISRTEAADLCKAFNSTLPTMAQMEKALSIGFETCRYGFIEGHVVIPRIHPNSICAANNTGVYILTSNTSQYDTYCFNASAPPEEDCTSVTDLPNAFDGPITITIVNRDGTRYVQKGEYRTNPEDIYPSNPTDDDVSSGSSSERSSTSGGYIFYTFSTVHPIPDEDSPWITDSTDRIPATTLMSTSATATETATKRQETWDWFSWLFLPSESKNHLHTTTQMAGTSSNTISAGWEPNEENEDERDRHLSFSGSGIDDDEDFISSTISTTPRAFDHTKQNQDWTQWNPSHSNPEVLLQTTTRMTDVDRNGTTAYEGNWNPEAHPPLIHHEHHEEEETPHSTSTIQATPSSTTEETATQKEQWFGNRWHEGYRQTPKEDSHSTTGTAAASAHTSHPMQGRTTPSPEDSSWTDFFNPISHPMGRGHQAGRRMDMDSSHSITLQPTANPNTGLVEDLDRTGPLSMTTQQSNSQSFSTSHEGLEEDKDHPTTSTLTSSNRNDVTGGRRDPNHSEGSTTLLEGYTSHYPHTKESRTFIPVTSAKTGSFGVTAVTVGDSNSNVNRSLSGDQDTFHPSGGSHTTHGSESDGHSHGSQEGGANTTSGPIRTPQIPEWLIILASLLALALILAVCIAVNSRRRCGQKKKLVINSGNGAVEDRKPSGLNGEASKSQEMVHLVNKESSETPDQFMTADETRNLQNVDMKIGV

acetyl-Lys-Pro-Ser-Ser-Pro-Pro-Glu-Glu-NH2 (Ac-KPSSPPEE-NH2) [Å6]
target of the peptide identified by anti-CD44 immunoprecipitation (CD44): targets CD44; also recorded: confirm CD44 as the target | inhibition of lung metastasis (B16 melanoma cells): ≥ 50% | pERK/Erk (ERK 1/2; CM/V): appears to have increased | pERK/Erk (ERK 1/2; CM/V with HA present): decreased | pERK/Erk (ERK 1/2; basal media (RPMI/BSA)): increased pERK/Erk in a dose dependent manner | pErk/Erk response to HA (ERK 1/2; basal media with HA): decreased this response to HA
